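Five concentrations, 48 hours, 96-well plates. TGI: concentration producing complete growth inhibition.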
Tests used:
Assay in all cases: NCI tumour cell line growth inhibition, 48 h
HCC-2998 colon = test system: HCC-2998 colon
MCF7 breast = test system: MCF7 breast
HOP-62 NSCLC = test system: HOP-62 NSCLC
NCI-H226 lung = test system: NCI-H226 lung
T-47D breast = test system: T-47D breast
NCI-H23 lung = test system: NCI-H23 lung
CAKI-1 renal = test system: CAKI-1 renal
SF-268 CNS = test system: SF-268 CNS
MDA-MB-435 = test system: MDA-MB-435
TK-10 renal = test system: TK-10 renal
SR leukemia = test system: SR leukemia
HL-60(TB) leukemia = test system: HL-60(TB) leukemia
SK-MEL-28 melanoma = test system: SK-MEL-28 melanoma
HCT-15 colon = test system: HCT-15 colon
K-562 leukemia = test system: K-562 leukemia
SK-MEL-5 melanoma = test system: SK-MEL-5 melanoma
A549 NSCLC = test system: A549 NSCLC
EKVX NSCLC = test system: EKVX NSCLC
LOX IMVI melanoma = test system: LOX IMVI melanoma
HT29 colon = test system: HT29 colon
DU-145 prostate = test system: DU-145 prostate
MALME-3M melanoma = test system: MALME-3M melanoma
SW-620 colon = test system: SW-620 colon
MDA-N = test system: MDA-N
786-0 renal = test system: 786-0 renal
SF-295 CNS = test system: SF-295 CNS
ACHN renal = test system: ACHN renal
SN12C renal = test system: SN12C renal
PC-3 prostate = test system: PC-3 prostate
OVCAR-8 ovarian = test system: OVCAR-8 ovarian
KM12 colon = test system: KM12 colon
HCT-116 colon = test system: HCT-116 colon
NCI-H522 lung = test system: NCI-H522 lung
SK-OV-3 ovarian = test system: SK-OV-3 ovarian
NCI-H460 lung = test system: NCI-H460 lung
OVCAR-3 ovarian = test system: OVCAR-3 ovarian
SNB-19 CNS = test system: SNB-19 CNS
SF-539 CNS = test system: SF-539 CNS
SK-MEL-2 melanoma = test system: SK-MEL-2 melanoma
UACC-257 melanoma = test system: UACC-257 melanoma
NCI/ADR-RES ovarian = test system: NCI/ADR-RES ovarian
UACC-62 melanoma = test system: UACC-62 melanoma
SNB-75 CNS = test system: SNB-75 CNS
OVCAR-4 ovarian = test system: OVCAR-4 ovarian
HS 578T breast = test system: HS 578T breast
U251 CNS = test system: U251 CNS
COLO 205 colon = test system: COLO 205 colon
IGROV1 ovarian = test system: IGROV1 ovarian
A498 renal = test system: A498 renal
OVCAR-5 ovarian = test system: OVCAR-5 ovarian
HOP-92 NSCLC = test system: HOP-92 NSCLC
M14 melanoma = test system: M14 melanoma
RXF 393 renal = test system: RXF 393 renal
RPMI-8226 leukemia = test system: RPMI-8226 leukemia
CCRF-CEM leukemia = test system: CCRF-CEM leukemia
MDA-MB-231 breast = test system: MDA-MB-231 breast
MOLT-4 leukemia = test system: MOLT-4 leukemia

CC(C)=C=CC(C)(C)NS(=O)(=O)NC(C)(C)C=C=C(C)C
TGI (HCC-2998 colon): > 100 µM | TGI (MCF7 breast): > 100 µM | TGI (HOP-62 NSCLC): > 100 µM | TGI (NCI-H226 lung): > 100 µM | TGI (T-47D breast): > 100 µM | TGI (NCI-H23 lung): > 100 µM | TGI (CAKI-1 renal): > 100 µM | TGI (SF-268 CNS): > 100 µM | TGI (MDA-MB-435): > 100 µM | TGI (TK-10 renal): > 100 µM | TGI (SR leukemia): > 100 µM | TGI (HL-60(TB) leukemia): > 100 µM | TGI (SK-MEL-28 melanoma): > 100 µM | TGI (HCT-15 colon): > 100 µM | TGI (K-562 leukemia): > 100 µM | TGI (SK-MEL-5 melanoma): > 100 µM | TGI (A549 NSCLC): > 100 µM | TGI (EKVX NSCLC): > 100 µM | TGI (LOX IMVI melanoma): > 100 µM | TGI (HT29 colon): > 100 µM | TGI (DU-145 prostate): > 100 µM | TGI (MALME-3M melanoma): > 100 µM | TGI (SW-620 colon): > 100 µM | TGI (MDA-N): > 100 µM | TGI (786-0 renal): > 100 µM | TGI (SF-295 CNS): > 100 µM | TGI (ACHN renal): > 100 µM | TGI (SN12C renal): > 100 µM | TGI (PC-3 prostate): > 100 µM | TGI (OVCAR-8 ovarian): > 100 µM | TGI (KM12 colon): > 100 µM | TGI (HCT-116 colon): > 100 µM | TGI (NCI-H522 lung): > 100 µM | TGI (SK-OV-3 ovarian): > 100 µM | TGI (NCI-H460 lung): > 100 µM | TGI (OVCAR-3 ovarian): > 100 µM | TGI (SNB-19 CNS): > 100 µM | TGI (SF-539 CNS): > 100 µM | TGI (SK-MEL-2 melanoma): > 100 µM | TGI (UACC-257 melanoma): > 100 µM | TGI (NCI/ADR-RES ovarian): > 100 µM | TGI (UACC-62 melanoma): > 100 µM | TGI (SNB-75 CNS): > 100 µM | TGI (OVCAR-4 ovarian): > 100 µM | TGI (HS 578T breast): > 100 µM | TGI (U251 CNS): > 100 µM | TGI (COLO 205 colon): > 100 µM | TGI (IGROV1 ovarian): > 100 µM | TGI (A498 renal): > 100 µM | TGI (OVCAR-5 ovarian): > 100 µM | TGI (HOP-92 NSCLC): > 100 µM | TGI (M14 melanoma): > 100 µM

CC(=O)OC[C@]12CCC3[C@@]4(C)CCCC(C)(C)C4CC[C@@]3(C)C1CC(C1=CC(=O)OC1O)O2 (stereo not given in full)
TGI (HCC-2998 colon): 2.83 µM | TGI (MCF7 breast): 2.97 µM | TGI (HOP-62 NSCLC): 3.9 µM | TGI (T-47D breast): 3.79 µM | TGI (NCI-H23 lung): 3.8 µM | TGI (CAKI-1 renal): 3.11 µM | TGI (SF-268 CNS): 4.88 µM | TGI (TK-10 renal): 3.2 µM | TGI (SR leukemia): 0.868 µM | TGI (HL-60(TB) leukemia): 2.66 µM | TGI (RXF 393 renal): 1.55 µM | TGI (RPMI-8226 leukemia): 0.761 µM | TGI (SK-MEL-28 melanoma): 2.19 µM | TGI (HCT-15 colon): 1.98 µM | TGI (K-562 leukemia): 9.56 µM | TGI (SK-MEL-5 melanoma): 2.85 µM | TGI (A549 NSCLC): 5.05 µM | TGI (EKVX NSCLC): 6.51 µM | TGI (CCRF-CEM leukemia): 0.982 µM | TGI (SW-620 colon): 1.85 µM | TGI (MDA-MB-231 breast): 3.12 µM | TGI (MDA-N): 2.42 µM | TGI (786-0 renal): 1.83 µM | TGI (PC-3 prostate): 2.68 µM | TGI (OVCAR-8 ovarian): 3.52 µM | TGI (KM12 colon): 3.62 µM | TGI (SK-OV-3 ovarian): 4.04 µM | TGI (MOLT-4 leukemia): 0.633 µM | TGI (UACC-62 melanoma): 3.65 µM | TGI (SNB-75 CNS): 3.91 µM | TGI (COLO 205 colon): 5.67 µM | TGI (IGROV1 ovarian): 2.95 µM | TGI (M14 melanoma): 3.07 µM

Reference: PubChem BioAssay (NCI)
